Paper PMC8958505, “Discovery of Potential Neuroprotective Agents against Paclitaxel-Induced Peripheral Neuropathy” (Journal of Medicinal Chemistry, 2022)
Where a name gives a salt, the structure may show the parent alone. Read-outs that look alike come from different tables or passages of the source.

Legend:
[1] = system: mouse primary DRG neurons; assay: Neurite outgrowth assay of DRG neurons (image-based HCS) against paclitaxel-induced neurotoxicity; format: cell-based; details: for activation at 1 µM: Mus musculus, DRG neuron; for protective efficacy against paclitaxel-induced neurotoxicity (in words): pretreated, + 50 nM paclitaxel
Protocol: All these 19 compounds were then subjected to the neurite outgrowth assay of dorsal root ganglion (DRG) neurons paired with an image-based HCS to analyze whether they had neuroprotective potential. Quantification of neurite outgrowth under different regimens is shown in Figure 3, wherein DRG neurons incubated in 50 nM paclitaxel could cause 60% reduction in neurite outgrowth compared to the control (no drug treatment). […] Taken together, CN016 is selected as a promising lead for further development.
(§1) Primary cortical or DRG cells were fixed with 4% paraformaldehyde for 15 min following compound and paclitaxel treatment. After washing with PBS, the fixed cells were permeabilized with PBS containing 0.05% Triton X-100 for 20 min and then blocked with commercial blocking buffer (#GTX30963; GeneTex, USA) at room temperature for 1 h. Subsequently, the cortical cells were stained for the extending processes and synaptic puncta by using anti-MAP2 (#MBS502140, 1:500; Mybiosource, USA) and anti-synaptophysin (#ab32127, 1:500; Abcam, UK) overnight. DRG cells were stained for the neurite and neuron nucleus by using anti-β III tubulin (#D71G9, 1:600; Cell Signaling, USA) and anti-NeuN monoclonal antibody (#MAB377, 1:400; Millipore, USA) overnight. On the second day, the samples were washed for 30 min with wash buffer and incubated with secondary antibodies (Alexa-488, 647 1:600; Thermo Fisher, USA) and 4 μg/mL Hoechst 33258 (#94403-1ML, 1:100; Merck, USA) at room temperature for 1 h. In the initial experiments of screening the potential neuroprotective compound for CIPN, ImageXpress^Micro (IXM) high-content imaging system (Molecular Devices, USA) driven by MetaXpress software was used. Images of treated cells were automatically acquired by using a 10× objective. Twenty-one images per well were taken in each of three channels (DAPI, FITC, and Cy5) to create a whole view of the entire neural network. The integrity of the neural network was evaluated using TIF images by importing them into MetaXpress software for analysis using the module for multiparameter, such as Neurite Outgrowth, Cell Scoring, and Transfluor. Furthermore, the score of synaptogenesis was analyzed in AcuityXpress software (Molecular Devices, USA).

primary cortical neurons [2] = assay: Synaptogenesis assay of primary cortical neurons (image-based HCS) against paclitaxel-induced neurotoxicity; format: cell-based, mouse; details: Mus musculus, Primary cortical neuron, mean ± SE; for activity at 0.01 µM: test compound 10 nM + paclitaxel 1 μM, read-out: A: Synaptogenesis (% of control) of test compound (10 nM) + paclitaxel (1 μM); for activity at 1 µM: test compound 1000 nM + paclitaxel 1 μM, read-out: B: Synaptogenesis (% of control) of test compound (1000 nM) + paclitaxel (1 μM)
Description: (§2) Herein, we wish to report that an in vitro neurite outgrowth assay of cortical neurons integrated with an image-based high-content screening (HCS) platform is used to evaluate a commercially available library of 78 minoxidil-related derivatives,[22] leading to the identification of a series of analogues able to prevent or alleviate paclitaxel-induced neurotoxicity. The project began with screening compounds with the primary culture of cortical neurons from neonatal mice. More specifically, cerebral cortex neurons cultured from P0 C57BL/6J mouse pups were incubated with a test compound (10 and 1000 nM) prior to paclitaxel (1 μM) treatment. Subsequently, both neurite outgrowth and synaptogenesis were measured to evaluate the test compounds’ neuroprotective capacity. […] This unique feature is preserved for the core-structure screening of our in-house library in the following subject. Moreover, the substituent at the C4 position appears flexible in terms of structural diversity. Collectively, CSV0A024807, the only one displaying the best neuroprotective potency on both neurite outgrowth and synaptogenesis assays, was thus elected as a potential hit compound for further development.
as §1

primary cortical neurons [3] = assay: Neurite outgrowth assay of primary cortical neurons (image-based HCS) against paclitaxel-induced neurotoxicity; format: cell-based, mouse; details: Mus musculus, Primary cortical neuron, mean ± SE; for activity at 0.01 µM: test compound 10 nM + paclitaxel 1 μM, read-out: C: Neurite outgrowth (% of control) of test compound (10 nM) + paclitaxel (1 μM); for activity at 1 µM: test compound 1000 nM + paclitaxel 1 μM, read-out: D: Neurite outgrowth (% of control) of test compound (1000 nM) + paclitaxel (1 μM)
Description: as §2, §1

[4] = Table 1, A: neurite outgrowth (% of control) of test compound 1000 nM + paclitaxel 50 nM, B: paclitaxel 50 nM alone, DRG neurons, read-out: Neuroprotection rate = (A-B)±S.E.M [%]
[5] = supplementary CSV, test compound 1000 nM, read-out: A-B (A: neurite outgrowth (% of control) of test compound (1000 nM) + paclitaxel (50 nM), B: of paclitaxel (50 nM))
[6] = Table S2, test compound 1000 nM + paclitaxel 50 nM minus paclitaxel 50 nM, read-out: Neuroprotection rate = (A-B) ± S.E.M [%]

| SMILES | activation at 1 µM [1, 4] [%] | activation at 1 µM [1, 5] [%] | activation at 1 µM [1, 6] [%] | also measured |
| --- | --- | --- | --- | --- |
| O=P(O)(O)CCN1CCC(Nc2cc(N3CCS(=O)(=O)CC3)nc(NCc3cn(CCCO)nn3)n2)CC1 [CN024, {2-[4-(6-(1,1-Dioxo-1l6-thiomorpholin-4-yl)-2-{[1-(3-hydroxy-propyl)-1H-[1,2,3]triazol-4-ylmethyl]-amino}-pyrimidin-4-ylamino)-piperidin-1-yl]-ethyl}-phosphonic Acid Hydrobromide Salt] | 7 ± 0.84 | 7 |  |  |
| CCOP(=O)(CCN1CCC(Nc2cc(N3CCOCC3)nc(NCc3cn(CCCO)nn3)n2)CC1)OCC [CN012, {2-[4-(2-{[1-(3-Hydroxy-propyl)-1H-[1,2,3]triazol-4-ylmethyl]-amino}-6-morpholin-4-yl-pyrimidin-4-ylamino)-piperidin-1-yl]-ethyl}-phosphonic Acid Diethyl Ester] | 12 ± 1 | 9 | 9 ± 1 | protective efficacy against paclitaxel-induced neurotoxicity (in words) ([1]; DRG neurons): exhibited protective efficacy |
| COCCCn1cc(CNc2nc(NC3CCN(CCP(=O)(O)O)CC3)cc(N3CCOCC3)n2)nn1 [CN028, {2-[4-(2-{[1-(3-Methoxy-propyl)-1H-[1,2,3]triazol-4-ylmethyl]-amino}-6-morpholin-4-yl-pyrimidin-4-ylamino)-piperidin-1-yl]-ethyl}-phosphonic Acid Hydrobromide Salt] | -2 | -2 |  |  |
| NCCOCCn1cc(CNc2nc(NC3CCN(C(=O)CCNC(=O)C4(O)CC(O)C(O)C(O)C4)CC3)cc(N3CCOCC3)n2)nn1 (stereo not shown) [CN008, 1,3,4,5-Tetrahydroxy-cyclohexanecarboxylic Acid (3-{4-[2-({1-[2-(2-Amino-ethoxy)-ethyl]-1H-[1,2,3]triazol-4-ylmethyl}-amino)-6-morpholin-4-yl-pyrimidin-4-ylamino]-piperidin-1-yl}-3-oxo-propyl)-amide Hydrochloride Salt] |  | 4 | 4 ± 1.44 |  |
| CCOP(=O)(CCN1CCC(Nc2cc(N3CCOCC3)nc(NCc3cn(CCC(C)O)nn3)n2)CC1)OCC (stereo not shown) [CN014, {2-[4-(2-{[1-(3-Hydroxy-butyl)-1H-[1,2,3]triazol-4-ylmethyl]-amino}-6-morpholin-4-yl-pyrimidin-4-ylamino)-piperidin-1-yl]-ethyl}-phosphonic Acid Diethyl Ester] |  | 9 | 9 ± 2 | protective efficacy against paclitaxel-induced neurotoxicity (in words) ([1]; DRG neurons): exhibited protective efficacy |
| CSCCCn1cc(CNc2nc(NC3CCN(Cc4ccccc4)CC3)cc(N3CCOCC3)n2)nn1 [CN003, N4-(1-Benzyl-piperidin-4-yl)-N2-[1-(3-methylsulfanyl-propyl)-1H-[1,2,3]triazol-4-ylmethyl]-6-morpholin-4-yl-pyrimidine-2,4-diamine] |  | 1 | 1 ± 2.6 |  |
| O=C(O)Cn1cc(CNc2nc(NC3CCN(Cc4ccccc4)CC3)cc(N3CCOCC3)n2)nn1 [CN001, (4-{[4-(1-Benzyl-piperidin-4-ylamino)-6-morpholin-4-yl-pyrimidin-2-ylamino]-methyl}-[1,2,3]triazol-1-yl)-acetic Acid Hydrochloride Salt] |  | -6 | -6 ± 0.3 |  |
| O=P(O)(O)CCN1CCC(Nc2cc(N3CCSCC3)nc(NCc3cn(CCCO)nn3)n2)CC1 [CN023, {2-[4-(2-{[1-(3-Hydroxy-propyl)-1H-[1,2,3]triazol-4-ylmethyl]-amino}-6-thiomorpholin-4-yl-pyrimidin-4-ylamino)-piperidin-1-yl]-ethyl}-phosphonic Acid Hydrobromide Salt] | 4 ± 1.43 | 4 |  |  |
| O=P(O)(O)CCN1CCC(Nc2cc(N3CCOCC3)nc(NCc3cn(CCO)nn3)n2)CC1 [CN020, (2-(4-((2-(((1-(2-Hydroxyethyl)-1H-1,2,3-triazol-4-yl)methyl)amino)-6-morpholinopyrimidin-4-yl)amino)piperidin-1-yl)ethyl)phosphonic Acid Hydrobromide Salt] | 8 to 11 | 8 |  |  |
| COCCCn1cc(CNc2nc(NC3CCN(CCC(=O)OC)CC3)cc(N3CCOCC3)n2)nn1 [CN010, 3-[4-(2-{[1-(3-Methoxy-propyl)-1H-[1,2,3]triazol-4-ylmethyl]-amino}-6-morpholin-4-yl-pyrimidin-4-ylamino)-piperidin-1-yl]-propionic Acid Methyl Ester] |  | 5 | 5 ± 3.06 |  |
| CCOP(=O)(CCN1CCC(Nc2cc(N3CCOCC3)nc(NCc3cn(CCC(C)(C)O)nn3)n2)CC1)OCC [CN013, {2-[4-(2-{[1-(3-Hydroxy-3-methyl-butyl)-1H-[1,2,3]triazol-4-ylmethyl]-amino}-6-morpholin-4-yl-pyrimidin-4-ylamino)-piperidin-1-yl]-ethyl}-phosphonic Acid Diethyl Ester] |  | 6 | 6 ± 1.17 |  |
| O=P(O)(O)CCN1CCC(Nc2cc(N3CCCCC3)nc(NCc3cn(CCCO)nn3)n2)CC1 [CN022, {2-[4-(2-{[1-(3-Hydroxy-propyl)-1H-[1,2,3]triazol-4-ylmethyl]-amino}-6-piperidin-1-yl-pyrimidin-4-ylamino)-piperidin-1-yl]-ethyl}-phosphonic Acid Hydrobromide Salt] | 6 ± 0.78 | 6 |  |  |
| CCOP(=O)(CCN1CCC(Nc2cc(N3CCOCC3)nc(NCc3ccc(CCO)cc3)n2)CC1)OCC [CN018, Diethyl(2-(4-((2-((4-(2-hydroxyethyl)benzyl)amino)-6-morpholinopyrimidin-4-yl)amino)piperidin-1-yl)ethyl)phosphonate] |  | 3 | 3 ± 2.2 | protective efficacy against paclitaxel-induced neurotoxicity (in words) ([1]; DRG neurons): inactive |
| COC(=O)CCN1CCC(Nc2cc(N3CCOCC3)nc(NCCCCCCO)n2)CC1 [CN017, Methyl 3-(4-((2-((6-Hydroxyhexyl)amino)-6-morpholinopyrimidin-4-yl)amino)piperidin-1-yl)propanoate] |  | 1 | 1 ± 0.51 | protective efficacy against paclitaxel-induced neurotoxicity (in words) ([1]; DRG neurons): inactive |
| CC(O)Cn1cc(CNc2nc(NC3CCN(CCP(=O)(O)O)CC3)cc(N3CCOCC3)n2)nn1 (stereo not shown) [CN025, {2-[4-(2-{[1-(2-Hydroxy-propyl)-1H-[1,2,3]triazol-4-ylmethyl]-amino}-6-morpholin-4-yl-pyrimidin-4-ylamino)-piperidin-1-yl]-ethyl}-phosphonic Acid Hydrobromide Salt] | 4 ± 0.63 | 4 |  |  |
| CN(C)c1cc(NNC(=O)c2ccc(C(C)(C)C)cc2)nc(N(C)C)n1 [CSV0B002001] |  |  |  | activity at 0.01 µM (primary cortical neurons [2]): 35 ± 3%; activity at 1 µM (primary cortical neurons [2]): 35 ± 3%; activity at 0.01 µM (primary cortical neurons [3]): 44 ± 3%; activity at 1 µM (primary cortical neurons [3]): 44 ± 3% |
| CN(C)c1cc(N/N=C/c2cccc([N+](=O)[O-])c2)nc(N(C)C)n1 [CSV0A027458] |  |  |  | activity at 0.01 µM (primary cortical neurons [2]): 73 ± 3%; activity at 1 µM (primary cortical neurons [2]): 73 ± 3%; activity at 0.01 µM (primary cortical neurons [3]): 71 ± 3%; activity at 1 µM (primary cortical neurons [3]): 65 ± 3% |
